In ChEMBL document CHEMBL4665642, “Anticancer profile of newly synthesized BRAF inhibitors possess 5-(pyrimidin-4-yl)imidazo[2,1-b]thiazole scaffold” (Bioorg Med Chem, 2019):

Assays:
Format in all cases: functional
Details in all cases: read-out: Activity
MDA-MB-468 = test: Cytotoxicity against human MDA-MB-468 cells assessed as cell viability at 10 uM incubated for 48 hrs by sulforhodamine B assay relative to control
T47D = test: Cytotoxicity against human T47D cells assessed as cell viability at 10 uM incubated for 48 hrs by sulforhodamine B assay relative to control
MDA-MB-231 = test: Cytotoxicity against human MDA-MB-231 cells assessed as cell viability at 10 uM incubated for 48 hrs by sulforhodamine B assay relative to control
MCF7 = test: Cytotoxicity against human MCF7 cells assessed as cell viability at 10 uM incubated for 48 hrs by sulforhodamine B assay relative to control
DU-145 = test: Cytotoxicity against human DU-145 cells assessed as cell viability at 10 uM incubated for 48 hrs by sulforhodamine B assay relative to control
UO-31 = test: Cytotoxicity against human UO-31 cells assessed as cell viability at 10 uM incubated for 48 hrs by sulforhodamine B assay relative to control
SN12C = test: Cytotoxicity against human SN12C cells assessed as cell viability at 10 uM incubated for 48 hrs by sulforhodamine B assay relative to control
CAKI-1 = test: Cytotoxicity against human CAKI-1 cells assessed as cell viability at 10 uM incubated for 48 hrs by sulforhodamine B assay relative to control
ACHN = test: Cytotoxicity against human ACHN cells assessed as cell viability at 10 uM incubated for 48 hrs by sulforhodamine B assay relative to control
SK-OV-3 = test: Cytotoxicity against human SK-OV-3 cells assessed as cell viability at 10 uM incubated for 48 hrs by sulforhodamine B assay relative to control
IGROV-1 = test: Cytotoxicity against human IGROV-1 cells assessed as cell viability at 10 uM incubated for 48 hrs by sulforhodamine B assay relative to control
UACC-62 = test: Cytotoxicity against human UACC-62 cells assessed as cell viability at 10 uM incubated for 48 hrs by sulforhodamine B assay relative to control
UACC-257 = test: Cytotoxicity against human UACC-257 cells assessed as cell viability at 10 uM incubated for 48 hrs by sulforhodamine B assay relative to control
SK-MEL-5 = test: Cytotoxicity against human SK-MEL-5 cells assessed as cell viability at 10 uM incubated for 48 hrs by sulforhodamine B assay relative to control
SK-MEL-28 = test: Cytotoxicity against human SK-MEL-28 cells assessed as cell viability at 10 uM incubated for 48 hrs by sulforhodamine B assay relative to control
SK-MEL-2 = test: Cytotoxicity against human SK-MEL-2 cells assessed as cell viability at 10 uM incubated for 48 hrs by sulforhodamine B assay relative to control
CCRF-CEM = test: Cytotoxicity against human CCRF-CEM cells assessed as cell viability at 10 uM incubated for 48 hrs by sulforhodamine B assay relative to control
K562 = test: Cytotoxicity against human K562 cells assessed as cell viability at 10 uM incubated for 48 hrs by sulforhodamine B assay relative to control
MOLT-4 = test: Cytotoxicity against human MOLT-4 cells assessed as cell viability at 10 uM incubated for 48 hrs by sulforhodamine B assay relative to control
RPMI-8226 = test: Cytotoxicity against human RPMI-8226 cells assessed as cell viability at 10 uM incubated for 48 hrs by sulforhodamine B assay relative to control
SR = test: Cytotoxicity against human SR cells assessed as cell viability at 10 uM incubated for 48 hrs by sulforhodamine B assay relative to control
A549 = test: Cytotoxicity against human A549 cells assessed as cell viability at 10 uM incubated for 48 hrs by sulforhodamine B assay relative to control
EKVX = test: Cytotoxicity against human EKVX cells assessed as cell viability at 10 uM incubated for 48 hrs by sulforhodamine B assay relative to control
HOP-62 = test: Cytotoxicity against human HOP-62 cells assessed as cell viability at 10 uM incubated for 48 hrs by sulforhodamine B assay relative to control
HOP-92 = test: Cytotoxicity against human HOP-92 cells assessed as cell viability at 10 uM incubated for 48 hrs by sulforhodamine B assay relative to control
NCI-H226 = test: Cytotoxicity against human NCI-H226 cells assessed as cell viability at 10 uM incubated for 48 hrs by sulforhodamine B assay relative to control
NCI-H23 = test: Cytotoxicity against human NCI-H23 cells assessed as cell viability at 10 uM incubated for 48 hrs by sulforhodamine B assay relative to control
NCI-H322M = test: Cytotoxicity against human NCI-H322M cells assessed as cell viability at 10 uM incubated for 48 hrs by sulforhodamine B assay relative to control
NCI-H460 = test: Cytotoxicity against human NCI-H460 cells assessed as cell viability at 10 uM incubated for 48 hrs by sulforhodamine B assay relative to control
NCI-H522 = test: Cytotoxicity against human NCI-H522 cells assessed as cell viability at 10 uM incubated for 48 hrs by sulforhodamine B assay relative to control
COLO 205 = test: Cytotoxicity against human COLO 205 cells assessed as cell viability at 10 uM incubated for 48 hrs by sulforhodamine B assay relative to control
HCC 2998 = test: Cytotoxicity against human HCC 2998 cells assessed as cell viability at 10 uM incubated for 48 hrs by sulforhodamine B assay relative to control
HCT-116 = test: Cytotoxicity against human HCT-116 cells assessed as cell viability at 10 uM incubated for 48 hrs by sulforhodamine B assay relative to control
HCT-15 = test: Cytotoxicity against human HCT-15 cells assessed as cell viability at 10 uM incubated for 48 hrs by sulforhodamine B assay relative to control
HCT-29 = test: Cytotoxicity against human […] cells assessed as cell viability at 10 uM incubated for 48 hrs by sulforhodamine B assay relative to control
KM12 = test: Cytotoxicity against human KM12 cells assessed as cell viability at 10 uM incubated for 48 hrs by sulforhodamine B assay relative to control
SW-620 = test: Cytotoxicity against human SW-620 cells assessed as cell viability at 10 uM incubated for 48 hrs by sulforhodamine B assay relative to control
SF-268 = test: Cytotoxicity against human SF-268 cells assessed as cell viability at 10 uM incubated for 48 hrs by sulforhodamine B assay relative to control
SNB-19 = test: Cytotoxicity against human SNB-19 cells assessed as cell viability at 10 uM incubated for 48 hrs by sulforhodamine B assay relative to control
SNB-75 = test: Cytotoxicity against human SNB-75 cells assessed as cell viability at 10 uM incubated for 48 hrs by sulforhodamine B assay relative to control
LOX IMVI = test: Cytotoxicity against human LOX IMVI cells assessed as cell viability at 10 uM incubated for 48 hrs by sulforhodamine B assay relative to control

## O=C(NCCNc1nccc(-c2c(-c3cccc(F)c3)nc3sccn23)n1)C1CCCCC1
MDA-MB-468
  viability at 10 µM: 59.5%
T47D
  viability at 10 µM: 30.2%
MDA-MB-231
  viability at 10 µM: 104%
MCF7
  viability at 10 µM: 82%
DU-145
  viability at 10 µM: 81.6%
UO-31
  viability at 10 µM: 40.3%
SN12C
  viability at 10 µM: 67.5%
CAKI-1
  viability at 10 µM: 70.4%
ACHN
  viability at 10 µM: 67.1%
SK-OV-3
  viability at 10 µM: 50.1%
IGROV-1
  viability at 10 µM: 45.1%
UACC-62
  viability at 10 µM: 58.4%
UACC-257
  viability at 10 µM: 113%
SK-MEL-5
  viability at 10 µM: 59.6%
SK-MEL-28
  viability at 10 µM: 106%
SK-MEL-2
  viability at 10 µM: 60.1%
CCRF-CEM
  viability at 10 µM: 70%
K562
  viability at 10 µM: 74.2%
MOLT-4
  viability at 10 µM: 55.4%
RPMI-8226
  viability at 10 µM: 81.6%
SR
  viability at 10 µM: 91%
A549
  viability at 10 µM: 78.8%
EKVX
  viability at 10 µM: 80.4%
HOP-62
  viability at 10 µM: 109%
HOP-92
  viability at 10 µM: 135%
NCI-H226
  viability at 10 µM: 60.9%
NCI-H23
  viability at 10 µM: 97%
NCI-H322M
  viability at 10 µM: 104%
NCI-H460
  viability at 10 µM: 91.6%
NCI-H522
  viability at 10 µM: 79.3%
COLO 205
  viability at 10 µM: 53.5%
HCC 2998
  viability at 10 µM: 104%
HCT-116
  viability at 10 µM: 51.9%
HCT-15
  viability at 10 µM: 61%
HCT-29
  viability at 10 µM: 43.6%
KM12
  viability at 10 µM: 81.6%
SW-620
  viability at 10 µM: 114%
SF-268
  viability at 10 µM: 77.3%
SNB-19
  viability at 10 µM: 96%
SNB-75
  viability at 10 µM: 88.6%
LOX IMVI
  viability at 10 µM: 65.9%

## O=S(=O)(NCCCNc1nccc(-c2c(-c3cccc(F)c3)nc3sccn23)n1)c1cccc2ccccc12
MDA-MB-468
  viability at 10 µM: 59.3%
T47D
  viability at 10 µM: 18.4%
MDA-MB-231
  viability at 10 µM: 4.05%
MCF7
  viability at 10 µM: 37.4%
DU-145
  viability at 10 µM: 49.9%
UO-31
  viability at 10 µM: 20%
SN12C
  viability at 10 µM: 46.9%
CAKI-1
  viability at 10 µM: 29.1%
ACHN
  viability at 10 µM: 34.7%
SK-OV-3
  viability at 10 µM: 65.8%
IGROV-1
  viability at 10 µM: 22.3%
UACC-62
  viability at 10 µM: 24.3%
UACC-257
  viability at 10 µM: 72.8%
SK-MEL-5
  viability at 10 µM: 31.8%
SK-MEL-28
  viability at 10 µM: 77.5%
SK-MEL-2
  viability at 10 µM: 47.8%
CCRF-CEM
  viability at 10 µM: 38.5%
K562
  viability at 10 µM: 15.2%
MOLT-4
  viability at 10 µM: 29.3%
RPMI-8226
  viability at 10 µM: 44.9%
SR
  viability at 10 µM: 62%
A549
  viability at 10 µM: 45.6%
EKVX
  viability at 10 µM: 56.1%
HOP-62
  viability at 10 µM: 80.7%
HOP-92
  viability at 10 µM: 94.6%
NCI-H226
  viability at 10 µM: 36.8%
NCI-H23
  viability at 10 µM: 66.2%
NCI-H322M
  viability at 10 µM: 81.6%
NCI-H460
  viability at 10 µM: 19.9%
NCI-H522
  viability at 10 µM: 56.3%
COLO 205
  viability at 10 µM: 21.5%
HCC 2998
  viability at 10 µM: 16.3%
HCT-116
  viability at 10 µM: 32.4%
HCT-15
  viability at 10 µM: 18.1%
HCT-29
  viability at 10 µM: 1.97%
KM12
  viability at 10 µM: 26%
SW-620
  viability at 10 µM: 42.1%
SF-268
  viability at 10 µM: 44.5%
SNB-19
  viability at 10 µM: 69%
SNB-75
  viability at 10 µM: 86.5%
LOX IMVI
  viability at 10 µM: 20.9%
